Experiments:
Assay in all cases: relative viability (nuclei count vs DMSO), 5 days (fraction); higher = more cells survive
[1] = tested on: SK-MES-1
Outline: (§1)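 Relative viability was taken as the ratio of nuclei in treated wells to nuclei in vehicle wells. Lung cancer cell lines in 1536-well plates received compounds by pin tool one day after seeding, either one drug alone or a fixed anchor-drug dose plus five library-drug doses (not always all listed) in √10 steps. Nuclei were counted on 4× images after 5 days of treatment, and values are medians of duplicate plates.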

[2] = tested on: NCI-H1563
Outline: as §1

[3] = tested on: PC-3 [JPC-3]
Outline: as §1

[4] = tested on: NCI-H520
Outline: as §1

[5] = tested on: NCI-H23
Outline: as §1

[6] = tested on: NCI-H1755
Outline: as §1

[7] = tested on: NCI-H1792
Outline: as §1

[8] = tested on: LK-2
Outline: as §1

[9] = tested on: NCI-H2170
Outline: as §1

[10] = tested on: NCI-H1666
Outline: as §1

[11] = tested on: NCI-H1944
Outline: as §1

[12] = tested on: NCI-H596
Outline: as §1

[13] = tested on: NCI-H1975
Outline: as §1

[14] = tested on: EMC-BAC-2
Outline: as §1

[15] = tested on: EKVX
Outline: as §1

[16] = tested on: HCC-366
Outline: as §1

[17] = tested on: A-427
Outline: as §1

[18] = tested on: H3255
Outline: as §1

[19] = tested on: NCI-H1734
Outline: as §1

[20] = tested on: COR-L 105
Outline: as §1

[21] = tested on: NCI-H441
Outline: as §1

[22] = tested on: LOU-NH91
Outline: as §1

## CC(C)Oc1cc(Nc2nc(N[C@@H](C)c3ccc(F)cn3)ncc2Cl)n[nH]1 [AZ23] + Cc1nc(NC(=O)N2CCC[C@H]2C(N)=O)sc1-c1ccnc(C(C)(C)C(F)(F)F)c1 [Alpelisib] (partner 2 µM)
[1]; first compound 0.01 µM
  relative viability: 1.01
[1]; first compound 0.03162 µM
  relative viability: 0.997
[1]; first compound 0.3162 µM
  relative viability: 1.06
[2]; first compound 0.01 µM
  relative viability: 0.895
[2]; first compound 0.03162 µM
  relative viability: 0.961
[2]; first compound 0.3162 µM
  relative viability: 0.899
[3]; first compound 0.01 µM
  relative viability: 1.14
[3]; first compound 0.03162 µM
  relative viability: 1.06
[3]; first compound 0.3162 µM
  relative viability: 0.962
[4]; first compound 0.01 µM
  relative viability: 1.06
[4]; first compound 0.03162 µM
  relative viability: 0.988
[4]; first compound 0.3162 µM
  relative viability: 0.752
[5]; first compound 0.03162 µM
  relative viability: 0.749
[5]; first compound 0.3162 µM
  relative viability: 0.573
[6]; first compound 0.01 µM
  relative viability: 1.12
[6]; first compound 0.03162 µM
  relative viability: 1.05
[6]; first compound 0.3162 µM
  relative viability: 1.09
[7]; first compound 0.01 µM
  relative viability: 1.08
[7]; first compound 0.03162 µM
  relative viability: 0.831
[7]; first compound 0.3162 µM
  relative viability: 0.83
[8]; first compound 0.03162 µM
  relative viability: 1.26
[8]; first compound 0.3162 µM
  relative viability: 1.17
[9]; first compound 0.01 µM
  relative viability: 0.87
[9]; first compound 0.03162 µM
  relative viability: 0.887
[9]; first compound 0.3162 µM
  relative viability: 0.831
[10]; first compound 0.01 µM
  relative viability: 0.869
[10]; first compound 0.03162 µM
  relative viability: 1.02
[10]; first compound 0.3162 µM
  relative viability: 0.92
[11]; first compound 0.01 µM
  relative viability: 0.811
[11]; first compound 0.03162 µM
  relative viability: 0.868
[11]; first compound 0.3162 µM
  relative viability: 0.883
[12]; first compound 0.01 µM
  relative viability: 0.51
[12]; first compound 0.03162 µM
  relative viability: 0.528
[12]; first compound 0.3162 µM
  relative viability: 0.418
[13]; first compound 0.01 µM
  relative viability: 0.696
[13]; first compound 0.03162 µM
  relative viability: 0.718
[13]; first compound 0.3162 µM
  relative viability: 0.705
[14]; first compound 0.01 µM
  relative viability: 0.897
[14]; first compound 0.03162 µM
  relative viability: 0.791
[14]; first compound 0.3162 µM
  relative viability: 0.754
[15]; first compound 0.01 µM
  relative viability: 0.923
[15]; first compound 0.03162 µM
  relative viability: 1.07
[15]; first compound 0.3162 µM
  relative viability: 0.978
[16]; first compound 0.01 µM
  relative viability: 0.391
[16]; first compound 0.03162 µM
  relative viability: 0.517
[16]; first compound 0.3162 µM
  relative viability: 0.334
[17]; first compound 0.01 µM
  relative viability: 1.13
[17]; first compound 0.03162 µM
  relative viability: 1.1
[17]; first compound 0.3162 µM
  relative viability: 1.08
[18]; first compound 0.01 µM
  relative viability: 0.637
[18]; first compound 0.03162 µM
  relative viability: 0.868
[18]; first compound 0.3162 µM
  relative viability: 0.863
[19]; first compound 0.01 µM
  relative viability: 0.683
[19]; first compound 0.03162 µM
  relative viability: 0.772
[19]; first compound 0.3162 µM
  relative viability: 0.649
[20]; first compound 0.01 µM
  relative viability: 0.676
[20]; first compound 0.03162 µM
  relative viability: 1.33
[20]; first compound 0.3162 µM
  relative viability: 0.813
[21]; first compound 0.01 µM
  relative viability: 1.05
[21]; first compound 0.03162 µM
  relative viability: 0.621
[21]; first compound 0.3162 µM
  relative viability: 0.576
[22]; first compound 0.01 µM
  relative viability: 0.676
[22]; first compound 0.03162 µM
  relative viability: 0.775
[22]; first compound 0.3162 µM
  relative viability: 0.699

Source: the supplement of paper PMC10307832
